Measurements reported in the kinase profiling compilation of Christmann-Franck et al. (2016).

Legend:
Assay in all cases: radiometric filter-binding kinase assay
CHEK1 (human) = CHEK1 (human) (UniProt O14757)
[1] = system: PAK2 (human), Q13177 [T402E]
EPHA4 (human) = EPHA4 (human) (UniProt P54764)
NEK2 (human) = NEK2 (human) (UniProt P51955)
RPS6KA5 KD1 KD2 (human) = RPS6KA5 KD1 KD2 (human) (UniProt O75582)
PLK1 (human) = PLK1 (human) (UniProt P53350)
IKBKE (human) = IKBKE (human) (UniProt Q14164)
IKBKE (human), sequence (Q14164 whole entry, looked up): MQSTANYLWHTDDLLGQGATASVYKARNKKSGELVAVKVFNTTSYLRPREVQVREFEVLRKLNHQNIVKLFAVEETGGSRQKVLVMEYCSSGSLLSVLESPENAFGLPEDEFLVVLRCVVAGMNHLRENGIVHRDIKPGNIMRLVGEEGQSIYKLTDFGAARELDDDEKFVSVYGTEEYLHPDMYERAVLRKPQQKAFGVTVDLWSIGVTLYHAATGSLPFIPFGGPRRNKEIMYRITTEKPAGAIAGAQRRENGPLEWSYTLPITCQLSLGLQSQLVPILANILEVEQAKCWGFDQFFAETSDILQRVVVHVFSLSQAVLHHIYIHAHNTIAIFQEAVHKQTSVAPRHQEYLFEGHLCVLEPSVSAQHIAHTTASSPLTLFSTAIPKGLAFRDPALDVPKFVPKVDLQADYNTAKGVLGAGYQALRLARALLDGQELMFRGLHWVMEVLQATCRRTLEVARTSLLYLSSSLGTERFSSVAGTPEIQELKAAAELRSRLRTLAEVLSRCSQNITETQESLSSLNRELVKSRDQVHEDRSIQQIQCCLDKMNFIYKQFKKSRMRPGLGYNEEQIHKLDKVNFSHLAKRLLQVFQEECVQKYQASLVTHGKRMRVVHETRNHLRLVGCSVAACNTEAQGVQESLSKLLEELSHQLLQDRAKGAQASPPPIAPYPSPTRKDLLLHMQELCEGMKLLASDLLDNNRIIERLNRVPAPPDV

RIPK2 (human) = RIPK2 (human) (UniProt O43353)
RIPK2 (human), sequence (O43353 whole entry, looked up): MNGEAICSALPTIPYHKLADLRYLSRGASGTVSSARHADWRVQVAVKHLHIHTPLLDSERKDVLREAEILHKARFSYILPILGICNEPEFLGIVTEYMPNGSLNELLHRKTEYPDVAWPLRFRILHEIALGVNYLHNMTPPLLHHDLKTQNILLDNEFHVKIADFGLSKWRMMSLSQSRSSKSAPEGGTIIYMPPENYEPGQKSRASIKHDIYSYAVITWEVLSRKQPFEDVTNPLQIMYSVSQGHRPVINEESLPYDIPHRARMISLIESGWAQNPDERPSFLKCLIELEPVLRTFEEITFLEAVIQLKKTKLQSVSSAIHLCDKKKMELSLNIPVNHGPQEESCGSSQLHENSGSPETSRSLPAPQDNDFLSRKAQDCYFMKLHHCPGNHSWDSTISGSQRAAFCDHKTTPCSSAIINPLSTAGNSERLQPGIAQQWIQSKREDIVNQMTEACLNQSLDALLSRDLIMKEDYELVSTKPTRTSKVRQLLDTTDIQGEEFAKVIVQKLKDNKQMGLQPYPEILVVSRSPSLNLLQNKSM

PAK7 (human) = PAK7 (human) (UniProt Q9P286)
MAPK14 (human) = MAPK14 (human) (UniProt Q16539)
HIPK3 (human) = HIPK3 (human) (UniProt Q9H422)
HIPK3 (human), sequence (Q9H422 whole entry, looked up): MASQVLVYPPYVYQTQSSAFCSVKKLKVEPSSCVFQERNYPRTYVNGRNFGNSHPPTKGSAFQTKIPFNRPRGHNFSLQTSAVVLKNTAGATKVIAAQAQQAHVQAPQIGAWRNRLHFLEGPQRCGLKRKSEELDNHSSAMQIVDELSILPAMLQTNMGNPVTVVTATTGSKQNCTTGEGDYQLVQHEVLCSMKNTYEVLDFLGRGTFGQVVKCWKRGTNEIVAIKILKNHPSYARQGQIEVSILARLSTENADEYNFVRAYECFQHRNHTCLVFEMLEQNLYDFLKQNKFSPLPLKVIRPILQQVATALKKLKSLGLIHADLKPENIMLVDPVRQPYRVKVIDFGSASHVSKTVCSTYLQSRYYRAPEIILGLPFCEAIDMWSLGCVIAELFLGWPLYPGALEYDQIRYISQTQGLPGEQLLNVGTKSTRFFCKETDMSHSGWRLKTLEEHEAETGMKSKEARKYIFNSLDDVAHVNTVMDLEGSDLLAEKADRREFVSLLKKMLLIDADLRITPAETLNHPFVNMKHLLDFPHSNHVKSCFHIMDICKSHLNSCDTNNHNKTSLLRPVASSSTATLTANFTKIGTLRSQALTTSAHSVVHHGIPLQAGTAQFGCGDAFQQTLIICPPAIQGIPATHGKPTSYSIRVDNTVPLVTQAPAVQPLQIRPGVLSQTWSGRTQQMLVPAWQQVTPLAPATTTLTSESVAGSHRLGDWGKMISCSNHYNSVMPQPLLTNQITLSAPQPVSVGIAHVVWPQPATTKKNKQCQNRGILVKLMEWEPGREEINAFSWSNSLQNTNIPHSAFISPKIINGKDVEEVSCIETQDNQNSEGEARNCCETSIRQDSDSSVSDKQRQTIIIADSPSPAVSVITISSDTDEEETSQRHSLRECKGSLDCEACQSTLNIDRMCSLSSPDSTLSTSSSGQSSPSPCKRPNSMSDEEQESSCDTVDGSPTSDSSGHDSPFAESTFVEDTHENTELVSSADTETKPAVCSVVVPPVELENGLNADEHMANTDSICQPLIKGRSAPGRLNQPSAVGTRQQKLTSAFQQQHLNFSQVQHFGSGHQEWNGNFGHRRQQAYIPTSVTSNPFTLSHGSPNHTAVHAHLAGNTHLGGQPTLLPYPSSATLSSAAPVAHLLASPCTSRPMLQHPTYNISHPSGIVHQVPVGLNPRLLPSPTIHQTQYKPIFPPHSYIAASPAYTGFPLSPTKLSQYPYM

CAMKK2 (human) = CAMKK2 (human) (UniProt Q96RR4)
DYRK1A (human) = DYRK1A (human) (UniProt Q13627)
IRAK4 (human) = IRAK4 (human) (UniProt Q9NWZ3)
[2] = system: AKT2 (human), P31751 [S474D]
RPS6KA3 KD1 KD2 (human) = RPS6KA3 KD1 KD2 (human) (UniProt P51812)
CLK2 (human) = CLK2 (human) (UniProt P49760)
NEK6 (human) = NEK6 (human) (UniProt Q9HC98)
NEK6 (human), sequence (Q9HC98 whole entry, looked up): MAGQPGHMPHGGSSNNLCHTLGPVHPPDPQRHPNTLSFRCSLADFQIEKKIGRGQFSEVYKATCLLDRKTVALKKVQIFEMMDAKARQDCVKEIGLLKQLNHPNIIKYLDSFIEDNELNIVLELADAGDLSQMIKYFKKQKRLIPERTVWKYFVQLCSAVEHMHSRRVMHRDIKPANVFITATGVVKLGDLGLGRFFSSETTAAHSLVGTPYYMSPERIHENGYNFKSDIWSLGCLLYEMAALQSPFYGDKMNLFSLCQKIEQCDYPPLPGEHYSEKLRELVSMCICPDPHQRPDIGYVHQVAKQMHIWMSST

PAK4 (human) = PAK4 (human) (UniProt O96013)
PIM3 (human) = PIM3 (human) (UniProt Q86V86)
[3] = system: SGK1 (human), O00141 [S422D]
PKN2 (human) = PKN2 (human) (UniProt Q16513)
MAPK15 (human) = MAPK15 (human) (UniProt Q8TD08)
MST4 (human) = MST4 (human) (UniProt Q9P289)
MAPKAPK2 (human) = MAPKAPK2 (human) (UniProt P49137)
IGF1R (human) = IGF1R (human) (UniProt P08069)
MAPK3 (human) = MAPK3 (human) (UniProt P27361)
MAPK3 (human), sequence (P27361 whole entry, looked up): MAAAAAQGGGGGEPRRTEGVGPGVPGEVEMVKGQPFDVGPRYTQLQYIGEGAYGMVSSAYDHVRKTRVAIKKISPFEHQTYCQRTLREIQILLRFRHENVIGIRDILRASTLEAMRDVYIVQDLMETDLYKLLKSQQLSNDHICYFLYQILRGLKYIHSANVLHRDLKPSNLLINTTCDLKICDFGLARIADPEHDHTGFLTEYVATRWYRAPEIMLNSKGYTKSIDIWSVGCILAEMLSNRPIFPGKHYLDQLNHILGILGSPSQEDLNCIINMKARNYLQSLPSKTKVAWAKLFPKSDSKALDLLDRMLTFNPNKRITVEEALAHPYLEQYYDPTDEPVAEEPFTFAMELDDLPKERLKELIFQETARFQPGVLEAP

PAK6 (human) = PAK6 (human) (UniProt Q9NQU5)
PAK6 (human), sequence (Q9NQU5 whole entry, looked up): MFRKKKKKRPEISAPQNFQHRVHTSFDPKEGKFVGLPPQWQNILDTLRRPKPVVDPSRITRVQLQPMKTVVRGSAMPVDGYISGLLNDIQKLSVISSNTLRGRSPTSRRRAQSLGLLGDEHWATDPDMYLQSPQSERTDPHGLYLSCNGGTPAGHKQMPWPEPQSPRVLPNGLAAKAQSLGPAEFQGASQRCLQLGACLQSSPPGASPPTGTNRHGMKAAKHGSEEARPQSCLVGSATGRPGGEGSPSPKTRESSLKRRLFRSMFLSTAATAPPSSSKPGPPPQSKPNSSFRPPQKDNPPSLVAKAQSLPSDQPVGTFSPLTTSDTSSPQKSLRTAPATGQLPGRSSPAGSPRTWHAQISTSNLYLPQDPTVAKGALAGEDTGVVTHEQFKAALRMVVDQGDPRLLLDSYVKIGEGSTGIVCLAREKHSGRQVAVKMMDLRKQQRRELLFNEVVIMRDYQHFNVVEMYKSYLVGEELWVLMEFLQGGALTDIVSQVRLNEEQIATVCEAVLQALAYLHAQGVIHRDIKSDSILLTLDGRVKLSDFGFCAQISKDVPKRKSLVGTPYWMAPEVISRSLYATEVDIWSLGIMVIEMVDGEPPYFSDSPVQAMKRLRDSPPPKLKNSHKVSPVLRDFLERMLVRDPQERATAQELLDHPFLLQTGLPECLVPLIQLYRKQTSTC

SRPK1 (human) = SRPK1 (human) (UniProt Q96SB4)
MARK1 (human) = MARK1 (human) (UniProt Q9P0L2)
MAP3K7 TAB1 (human) = MAP3K7 TAB1 (human) (UniProt Q15750+O43318)
MAPK12 (human) = MAPK12 (human) (UniProt P53778)
MAPK12 (human), sequence (P53778 whole entry, looked up): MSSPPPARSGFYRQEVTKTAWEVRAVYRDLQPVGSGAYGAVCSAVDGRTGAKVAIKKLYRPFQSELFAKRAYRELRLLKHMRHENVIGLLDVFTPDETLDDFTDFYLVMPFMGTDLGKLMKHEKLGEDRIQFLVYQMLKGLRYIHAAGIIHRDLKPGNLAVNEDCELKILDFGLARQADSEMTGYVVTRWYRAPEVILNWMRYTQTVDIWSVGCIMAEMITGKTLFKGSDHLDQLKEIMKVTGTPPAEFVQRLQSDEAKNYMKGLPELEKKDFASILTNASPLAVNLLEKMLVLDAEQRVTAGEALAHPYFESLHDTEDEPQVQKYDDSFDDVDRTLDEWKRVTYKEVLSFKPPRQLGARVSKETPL

PIM2 (human) = PIM2 (human) (UniProt Q9P1W9)
CSNK1D (human) = CSNK1D (human) (UniProt P48730)
CSNK1D (human), sequence (P48730 whole entry, looked up): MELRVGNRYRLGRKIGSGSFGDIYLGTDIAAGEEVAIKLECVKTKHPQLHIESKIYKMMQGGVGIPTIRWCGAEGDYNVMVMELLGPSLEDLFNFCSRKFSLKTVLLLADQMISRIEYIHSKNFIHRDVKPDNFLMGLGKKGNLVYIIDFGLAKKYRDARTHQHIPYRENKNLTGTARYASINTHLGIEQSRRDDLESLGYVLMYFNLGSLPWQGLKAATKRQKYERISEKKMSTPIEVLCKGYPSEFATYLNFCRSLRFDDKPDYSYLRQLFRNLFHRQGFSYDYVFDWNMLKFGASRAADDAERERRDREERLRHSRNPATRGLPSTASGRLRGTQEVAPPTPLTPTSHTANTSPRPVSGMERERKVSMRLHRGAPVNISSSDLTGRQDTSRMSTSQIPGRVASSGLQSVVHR

## O=C(Nc1nc2cc(C(F)(F)F)cc(NC3CC3)n2n1)c1cccnc1
CHEK1 (human); compound 0.01 µM
  residual activity: 103%
CHEK1 (human); compound 0.1 µM
  residual activity: 99%
CHEK1 (human); compound 1.0 µM
  residual activity: 104%
[1]; compound 0.01 µM
  residual activity: 110%
[1]; compound 0.1 µM
  residual activity: 126%
[1]; compound 1.0 µM
  residual activity: 104%
EPHA4 (human); compound 0.01 µM
  residual activity: 101%
EPHA4 (human); compound 0.1 µM
  residual activity: 124%
EPHA4 (human); compound 1.0 µM
  residual activity: 93%
NEK2 (human); compound 0.01 µM
  residual activity: 97%
NEK2 (human); compound 0.1 µM
  residual activity: 97%
NEK2 (human); compound 1.0 µM
  residual activity: 96%
RPS6KA5 KD1 KD2 (human); compound 0.01 µM
  residual activity: 114%
RPS6KA5 KD1 KD2 (human); compound 0.1 µM
  residual activity: 114%
RPS6KA5 KD1 KD2 (human); compound 1.0 µM
  residual activity: 95%
PLK1 (human); compound 0.01 µM
  residual activity: 104%
PLK1 (human); compound 0.1 µM
  residual activity: 128%
PLK1 (human); compound 1.0 µM
  residual activity: 103%
IKBKE (human); compound 0.01 µM
  residual activity: 114%
IKBKE (human); compound 0.1 µM
  residual activity: 106%
IKBKE (human); compound 1.0 µM
  residual activity: 96%
RIPK2 (human); compound 0.01 µM
  residual activity: 89%
RIPK2 (human); compound 0.1 µM
  residual activity: 87%
RIPK2 (human); compound 1.0 µM
  residual activity: 89%
PAK7 (human); compound 0.01 µM
  residual activity: 97%
PAK7 (human); compound 0.1 µM
  residual activity: 114%
PAK7 (human); compound 1.0 µM
  residual activity: 91%
MAPK14 (human); compound 0.01 µM
  residual activity: 109%
MAPK14 (human); compound 0.1 µM
  residual activity: 121%
MAPK14 (human); compound 1.0 µM
  residual activity: 114%
HIPK3 (human); compound 0.01 µM
  residual activity: 101%
HIPK3 (human); compound 0.1 µM
  residual activity: 102%
HIPK3 (human); compound 1.0 µM
  residual activity: 96%
CAMKK2 (human); compound 0.01 µM
  residual activity: 108%
CAMKK2 (human); compound 0.1 µM
  residual activity: 96%
CAMKK2 (human); compound 1.0 µM
  residual activity: 105%
DYRK1A (human); compound 0.01 µM
  residual activity: 94%
DYRK1A (human); compound 0.1 µM
  residual activity: 92%
DYRK1A (human); compound 1.0 µM
  residual activity: 81%
IRAK4 (human); compound 0.01 µM
  residual activity: 90%
IRAK4 (human); compound 0.1 µM
  residual activity: 90%
IRAK4 (human); compound 1.0 µM
  residual activity: 83%
[2]; compound 0.01 µM
  residual activity: 97%
[2]; compound 0.1 µM
  residual activity: 103%
[2]; compound 1.0 µM
  residual activity: 94%
RPS6KA3 KD1 KD2 (human); compound 0.01 µM
  residual activity: 112%
RPS6KA3 KD1 KD2 (human); compound 0.1 µM
  residual activity: 106%
RPS6KA3 KD1 KD2 (human); compound 1.0 µM
  residual activity: 89%
CLK2 (human); compound 0.01 µM
  residual activity: 101%
CLK2 (human); compound 0.1 µM
  residual activity: 82%
CLK2 (human); compound 1.0 µM
  residual activity: 40%
NEK6 (human); compound 0.01 µM
  residual activity: 114%
NEK6 (human); compound 0.1 µM
  residual activity: 113%
NEK6 (human); compound 1.0 µM
  residual activity: 101%
PAK4 (human); compound 0.01 µM
  residual activity: 111%
PAK4 (human); compound 0.1 µM
  residual activity: 98%
PAK4 (human); compound 1.0 µM
  residual activity: 102%
PIM3 (human); compound 0.01 µM
  residual activity: 104%
PIM3 (human); compound 0.1 µM
  residual activity: 101%
PIM3 (human); compound 1.0 µM
  residual activity: 95%
[3]; compound 0.01 µM
  residual activity: 103%
[3]; compound 1.0 µM
  residual activity: 100%
PKN2 (human); compound 0.01 µM
  residual activity: 77%
PKN2 (human); compound 0.1 µM
  residual activity: 104%
PKN2 (human); compound 1.0 µM
  residual activity: 75%
MAPK15 (human); compound 0.01 µM
  residual activity: 102%
MAPK15 (human); compound 0.1 µM
  residual activity: 110%
MAPK15 (human); compound 1.0 µM
  residual activity: 102%
MST4 (human); compound 0.01 µM
  residual activity: 106%
MST4 (human); compound 0.1 µM
  residual activity: 99%
MST4 (human); compound 1.0 µM
  residual activity: 106%
MAPKAPK2 (human); compound 0.01 µM
  residual activity: 99%
MAPKAPK2 (human); compound 0.1 µM
  residual activity: 102%
MAPKAPK2 (human); compound 1.0 µM
  residual activity: 99%
IGF1R (human); compound 0.01 µM
  residual activity: 88%
IGF1R (human); compound 0.1 µM
  residual activity: 89%
IGF1R (human); compound 1.0 µM
  residual activity: 79%
MAPK3 (human); compound 0.01 µM
  residual activity: 120%
MAPK3 (human); compound 0.1 µM
  residual activity: 127%
MAPK3 (human); compound 1.0 µM
  residual activity: 116%
PAK6 (human); compound 0.01 µM
  residual activity: 100%
PAK6 (human); compound 0.1 µM
  residual activity: 88%
PAK6 (human); compound 1.0 µM
  residual activity: 93%
SRPK1 (human); compound 0.01 µM
  residual activity: 100%
SRPK1 (human); compound 0.1 µM
  residual activity: 90%
SRPK1 (human); compound 1.0 µM
  residual activity: 102%
MARK1 (human); compound 0.01 µM
  residual activity: 93%
MARK1 (human); compound 0.1 µM
  residual activity: 90%
MARK1 (human); compound 1.0 µM
  residual activity: 86%
MAP3K7 TAB1 (human); compound 0.01 µM
  residual activity: 92%
MAP3K7 TAB1 (human); compound 1.0 µM
  residual activity: 84%
MAPK12 (human); compound 0.01 µM
  residual activity: 71%
MAPK12 (human); compound 0.1 µM
  residual activity: 102%
MAPK12 (human); compound 1.0 µM
  residual activity: 80%
PIM2 (human); compound 0.01 µM
  residual activity: 106%
PIM2 (human); compound 0.1 µM
  residual activity: 109%
PIM2 (human); compound 1.0 µM
  residual activity: 108%
CSNK1D (human); compound 0.01 µM
  residual activity: 92%
CSNK1D (human); compound 0.1 µM
  residual activity: 93%
CSNK1D (human); compound 1.0 µM
  residual activity: 59%

## CCOC(=O)c1ccc(N2NC(=O)/C(=C/c3ccc([N+](=O)[O-])o3)C2=O)cc1
CHEK1 (human); compound 10.0 µM
  residual activity: 164%
[1]; compound 10.0 µM
  residual activity: 91%
EPHA4 (human); compound 10.0 µM
  residual activity: 75%
NEK2 (human); compound 10.0 µM
  residual activity: 125%
RPS6KA5 KD1 KD2 (human); compound 10.0 µM
  residual activity: 62%
PLK1 (human); compound 10.0 µM
  residual activity: 92%
IKBKE (human); compound 10.0 µM
  residual activity: 156%
RIPK2 (human); compound 10.0 µM
  residual activity: 134%
PAK7 (human); compound 10.0 µM
  residual activity: 118%
MAPK14 (human); compound 10.0 µM
  residual activity: 105%
HIPK3 (human); compound 10.0 µM
  residual activity: 103%
CAMKK2 (human); compound 10.0 µM
  residual activity: 125%
DYRK1A (human); compound 10.0 µM
  residual activity: 70%
IRAK4 (human); compound 10.0 µM
  residual activity: 112%
[2]; compound 10.0 µM
  residual activity: 49%
RPS6KA3 KD1 KD2 (human); compound 10.0 µM
  residual activity: 37%
CLK2 (human); compound 10.0 µM
  residual activity: 126%
NEK6 (human); compound 10.0 µM
  residual activity: 106%
PAK4 (human); compound 10.0 µM
  residual activity: 55%
PIM3 (human); compound 10.0 µM
  residual activity: 92%
[3]; compound 10.0 µM
  residual activity: 126%
PKN2 (human); compound 10.0 µM
  residual activity: 105%
MAPK15 (human); compound 10.0 µM
  residual activity: 86%
MST4 (human); compound 10.0 µM
  residual activity: 87%
MAPKAPK2 (human); compound 10.0 µM
  residual activity: 78%
MAPK3 (human); compound 10.0 µM
  residual activity: 103%
PAK6 (human); compound 10.0 µM
  residual activity: 133%
SRPK1 (human); compound 10.0 µM
  residual activity: 76%
MARK1 (human); compound 10.0 µM
  residual activity: 62%
MAP3K7 TAB1 (human); compound 10.0 µM
  residual activity: 102%
MAPK12 (human); compound 10.0 µM
  residual activity: 112%
PIM2 (human); compound 10.0 µM
  residual activity: 107%
CSNK1D (human); compound 10.0 µM
  residual activity: 112%
